Measured values as given in ChEMBL document CHEMBL1154568, “Sulcatin, a novel antiproliferative N-methylpyridinium alkaloid from the ascidian Microcosmus vulgaris” (J Nat Prod, 2000).
Calls of active or inactive are those of the source. The rule behind the calls is not given here.

Experiments:
J774 = test: Antiproliferative activity against mouse J774 cells after 96 hrs by MTT assay; assay type: cell-based; settings: j774, 96 h
WEHI = test: Antiproliferative activity against mouse WEHI 164 cells after 96 hrs by MTT assay; assay type: functional, cell-based

Cc1cc[n+](C)cc1CCC(=O)[O-] [SULCATIN]
Activity (J774): Active | Activity (WEHI): Active
